Measured values from ChEMBL document CHEMBL1201862, “PubChem BioAssay data set” (2004).
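Where inhibition never reached the appropriate level, the endpoint shown equals the highest concentration tested. Otherwise, values were interpolated linearly from a five-concentration, 48-hour dose response in 96-well plates. Abbreviation: GI50, concentration required for 50% inhibition of growth.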 Active and inactive are the calls of the source. No stated cut-off is given here; in the data, active = GI50 up to about 1.1 µM and inactive = higher.

How the values were obtained:
Experiment in all cases: DTP human tumour cell line panel, 48 h
NCI-H460 = test system: NCI-H460
UO-31 = test system: UO-31
LOX IMVI = test system: LOX IMVI
SNB-19 = test system: SNB-19
SK-MEL-2 = test system: SK-MEL-2
KM12 = test system: KM12
K562 = test system: K562
COLO 205 = test system: COLO 205
SF-268 = test system: SF-268
786-0 = test system: 786-0
SN12C = test system: SN12C
A549 = test system: A549
OVCAR-8 = test system: OVCAR-8
HOP-92 = test system: HOP-92
TK-10 = test system: TK-10
CCRF-CEM = test system: CCRF-CEM
OVCAR-5 = test system: OVCAR-5
SK-OV-3 = test system: SK-OV-3
SF-539 = test system: SF-539
RXF 393 = test system: RXF 393

Measured: GI50

COc1cc(OC)cc(-n2c(N)c(-c3nc4ccccc4n3C)c3ccc([N+](=O)[O-])cc3c2=O)c1
inactive: NCI-H460 > 100 µM | UO-31 > 100 µM | LOX IMVI > 100 µM | SNB-19 40.6 µM | SK-MEL-2 > 100 µM | KM12 35.6 µM | K562 > 100 µM | COLO 205 > 100 µM | SF-268 55.5 µM | 786-0 64.7 µM | SN12C 94.4 µM | A549 > 100 µM | OVCAR-8 32 µM | HOP-92 18.6 µM | TK-10 > 100 µM

O=C(CC(c1ccccc1)C(C(=O)c1ccncc1)C(CC(=O)c1ccncc1)c1ccccc1)c1ccncc1 (stereo not given)
inactive: NCI-H460 89.5 µM | CCRF-CEM > 100 µM | UO-31 > 100 µM | LOX IMVI > 100 µM | OVCAR-5 > 100 µM | SNB-19 39 µM | SK-MEL-2 78.7 µM | KM12 > 100 µM | COLO 205 > 100 µM | SF-268 32.4 µM | 786-0 68.2 µM | A549 26.7 µM | OVCAR-8 35.6 µM | HOP-92 48.3 µM | SK-OV-3 29.2 µM | TK-10 47.5 µM

O=C(/C=C(\O)c1cc(-c2ccccc2)n(-c2ccccc2)n1)c1ccccc1
inactive: NCI-H460 3.53 µM | CCRF-CEM 1.24 µM | UO-31 4.27 µM | LOX IMVI 4.37 µM | OVCAR-5 19.3 µM | SNB-19 5.97 µM | SK-MEL-2 13.4 µM | KM12 4.48 µM | K562 3.46 µM | COLO 205 4.69 µM | SF-268 24.2 µM | 786-0 3.27 µM | SF-539 10.9 µM | SN12C 2.56 µM | A549 4.4 µM | OVCAR-8 3.2 µM | RXF 393 67.6 µM | SK-OV-3 3.04 µM | TK-10 4.46 µM

COC(=O)/C(C#N)=C1\CCC(OC)N1 (stereo not given)
inactive: NCI-H460 > 100 µM | CCRF-CEM > 100 µM | UO-31 > 100 µM | LOX IMVI > 100 µM | OVCAR-5 > 100 µM | SNB-19 > 100 µM | SK-MEL-2 > 100 µM | KM12 > 100 µM | K562 > 100 µM | COLO 205 > 100 µM | SF-268 > 100 µM | 786-0 > 100 µM | SF-539 > 100 µM | SN12C > 100 µM | A549 > 100 µM | OVCAR-8 > 100 µM | RXF 393 47.2 µM | SK-OV-3 > 100 µM | TK-10 > 100 µM

Cc1c(NC(=O)CSC(=S)N(C)C)c(=O)n(-c2ccccc2)n1C
inactive: NCI-H460 > 100 µM | CCRF-CEM > 100 µM | UO-31 > 100 µM | LOX IMVI > 100 µM | OVCAR-5 > 100 µM | SNB-19 > 100 µM | SK-MEL-2 > 100 µM | KM12 > 100 µM | K562 > 100 µM | COLO 205 > 100 µM | SF-268 > 100 µM | 786-0 > 100 µM | SF-539 > 100 µM | SN12C > 100 µM | A549 > 100 µM | OVCAR-8 > 100 µM | RXF 393 > 100 µM | SK-OV-3 > 100 µM | TK-10 > 100 µM

O=C1CCC2(c3ccc(F)cc3)Nc3ncncc3N12 (stereo not given)
inactive: NCI-H460 > 10 µM | CCRF-CEM > 10 µM | UO-31 > 10 µM | LOX IMVI > 10 µM | OVCAR-5 > 10 µM | SNB-19 > 10 µM | SK-MEL-2 > 10 µM | KM12 > 10 µM | K562 > 10 µM | SF-268 > 10 µM | 786-0 > 10 µM | SF-539 > 10 µM | SN12C > 10 µM | A549 > 10 µM | OVCAR-8 > 10 µM | HOP-92 > 10 µM | TK-10 > 10 µM
